Reference: publication PMC10526194 (2023)

What was measured:
[1] = test system: 40-mer aptamer (DNA, aptamer) ACGTTGACGCTGGTGCCCGGTTGTGGTGCGAGTGTTGTGT; test: CD titration; conditions: 100 mM Na+, 5 mM K+, 2 mM Mg2+, 1 mM Ca2+; 20 mM Tris pH 7.6, 25 °C; 5 µM aptamer, 2.5-40 µM OTC
[2] = test system: 71-mer aptamer (DNA, aptamer) GGAATTCGCTAGCACGTTGACGCTGGTGCCCGGTTGTGGTGCGAGTGTTGTGTGGATCCGAGCTCCACGTG; test: CD titration; conditions: 100 mM Na+, 5 mM K+, 2 mM Mg2+, 1 mM Ca2+; 20 mM Tris pH 7.6, 25 °C; 5 µM aptamer, 2.5-40 µM OTC
[3] = test system: thiol-modified 40-mer aptamer (DNA, aptamer) ACGTTGACGCTGGTGCCCGGTTGTGGTGCGAGTGTTGTGT; test: QCM with dissipation (frequency decrease); conditions: 100 mM Na+, 5 mM K+, 2 mM Mg2+, 1 mM Ca2+; pH 7.1 and 9.1, 25 °C; 20 and 40 µM OTC
[4] = test system: 40-mer aptamer (DNA, aptamer) ACGTTGACGCTGGTGCCCGGTTGTGGTGCGAGTGTTGTGT; test: CD thermal denaturation (250 nm free, 270 nm bound); conditions: 100 mM Na+, 5 mM K+, 2 mM Mg2+, 1 mM Ca2+; 20 mM Tris pH 7.1; 40 µM OTC, 5 µM aptamer; derived from two Tm (41 to 80 °C)

binding [1]: yes
binding [2]: yes
binding [3]: yes
Tm shift (ΔTm) [4]: 39 °C
Compound: CN(C)[C@@H]1C(=O)C(C(N)=O)=C(O)[C@@]2(O)C(=O)C3=C(O)c4c(O)cccc4[C@@](C)(O)[C@H]3[C@H](O)[C@@H]12
